Results reported in patent US20240307409A1, “ARGININE METHYLTRANSFERASE INHIBITOR AND USE THEREOF” (Cytosinlab Therapeutics Co., Ltd., priority 2021, published 2024).
Each block holds one molecule with its values, some of them ahead of it.

Assays:
PRMT1 = PRMT1 (Homo sapiens, UniProt Q99873); experiment: PRMT1 enzyme activity test; assay type: biochemical; details: 0.5 nM PRMT1, 3H-SAM, peptide
Outline: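 Radiometric methylation assay: 0.5 nM PRMT1 preincubated 15 min at room temperature with compound (10-point 3-fold series, 1% DMSO) in pH 8.0 Tris buffer with Tween-20 and DTT. 0.25 uM ³H-SAM and 0.1 uM biotinylated peptide then reacted 120 min. Product captured on streptavidin FlashPlate and counted; IC50 from four-parameter fit of % inhibition.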

Toledo cells = experiment: Toledo cell proliferation inhibition assay; assay type: cell-based; details: Homo sapiens, Toledo, 144 h; six-day assay, CellTiter-Glo
Outline: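 Toledo cells seeded at 2000 cells/well in RPMI 1640 + 10% FBS and incubated with compound for six days at 37° C, 5% CO2. Viability was then read by CellTiter-Glo luminescence after 30 min orbital mixing.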

MMA in RKO cells = experiment: RKO In Cell Western assay (MMA primary antibody); assay type: cell-based; details: Homo sapiens, 72 hours, read-out: RKO ICW_EC30
Method: RKO was seeded at a concentration of 20,000 cells/ml into a polylysine-coated 96-well plate (Corning #3599), with 2,000 cells per well and 100 μL of culture mediumper well. 500 nL of compound was added to the 96-well plate. 3) The 96-well plate was incubated in a 37° C., 5% CO2 incubator for 72 hours. After three days, the 96-well plate was taken from the incubator, 100 μL of 8% paraformaldehyde solution was added to each well, and the plate was placed at room temperature for 15 min. After 15 min, the liquid in the plate was shaken out and the plate was washed three times with phosphate buffer (1*PBS). The liquid in the plate was shaken out and 200 μL of membrane-breaking buffer (0.1% (v/v) Tween-20 in PBS) was added and the plate was incubated on a shaker for 30 min. After half an hour, the liquid in the plate was shaken out, and blocking buffer was added and the plate was incubated for two hours at room temperature with shaking. After that, the liquid in the plate was shaken off, and the blocking solution containing primary antibody (MMA primary antibody, CST #8711S, 1:1000 v/v) was added to the 96-well plate and the plate was incubated at 4° C. overnight with shaking. The next day, the plate was washed three times with washing solution (0.05% (v/v) Tween-20 in PBS), and a blocking solution containing secondary antibody (goat anti-rabbit IgG (H+L) Invitrogen #31460, 1:10,000 v/v) was added and the plate was incubated for two hours at room temperature. Afterwards, the 96-well plate was washed four times with washing solution. The TMB mixture was added to the 96-well plate and then the plate was incubated for 15 minutes at room temperature with shaking. After that, the reaction terminating solution was added, and the value was read at OD450 nm using an microplate reader. The plate was washed three times with washing solution, and 50 μL of janusgreen staining solution was added, and the plate was incubated for 15 minutes at room temperature with shaking. The reaction was washed ten times with water until no color residue was left. 200 μL of 0.5 M hydrochloric acid solution was added to each well and the plate was incubated for 10 min at room temperature. The value was read at OD595 nm using Flexstation.
Firstly, the ratio OD450/OD595 was calculated for each well
Each plate had six DMSO negative control groups (ZPE) and six 10 μM positive control groups (HPE), and the average of the control group ratios was used to determine the percentage of activation for each test well. The compounds to be tested were triple diluted with DMSO for a total of 8 concentration points with a starting concentration of 5 μM. The equation for calculating the activation percentage of each test well was: […]

Chain of PRMT1 (Q99873 whole entry): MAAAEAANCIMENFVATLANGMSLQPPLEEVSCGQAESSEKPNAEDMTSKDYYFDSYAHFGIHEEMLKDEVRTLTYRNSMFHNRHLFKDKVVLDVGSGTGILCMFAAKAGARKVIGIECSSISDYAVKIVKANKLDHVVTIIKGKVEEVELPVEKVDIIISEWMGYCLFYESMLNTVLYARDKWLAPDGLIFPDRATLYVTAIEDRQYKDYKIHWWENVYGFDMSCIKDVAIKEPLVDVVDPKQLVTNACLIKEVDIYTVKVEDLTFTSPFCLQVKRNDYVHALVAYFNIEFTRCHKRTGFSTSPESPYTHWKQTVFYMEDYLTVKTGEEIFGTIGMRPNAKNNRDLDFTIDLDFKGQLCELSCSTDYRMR

SMILES: CNCCN(C)Cc1ccc(C)nc1C1CCN(c2cccc(C)c2)CC1 [P081, N^1,N^2-dimethyl-N1-((6-methyl-2-(1-(m-tolyl)piperidin-4-yl)pyridin-3-yl)methyl)ethane-1,2-diamine]
- IC50 (PRMT1): < 50 nM
- IC50 (Toledo cells): < 1000 nM
- EC30 (MMA in RKO cells): < 250 nM

SMILES: CNCCN(C)Cc1ccc(C(C)O)cc1C1CCN(c2cccc(C)c2)CC1 (stereo not drawn) [P083]
- IC50 (PRMT1): < 50 nM
- IC50 (Toledo cells): < 1000 nM
- EC30 (MMA in RKO cells): < 250 nM

SMILES: CNCCN(C)Cc1ncccc1C1CCN(c2cc(C)cc(F)c2)CC1 [P085]
- IC50 (PRMT1): < 50 nM
- IC50 (Toledo cells): < 1000 nM
- EC30 (MMA in RKO cells): < 250 nM

SMILES: CNCCN(C)Cc1ncccc1N1CCc2ccc(C(F)(F)F)cc2CC1 [P088, N^1,N^2-dimethyl-N^1-((3-(7-(trifluoromethyl)-4,5-dihydro-1H-benzo[d]azepin-3(2H)-yl)pyridin-2-yl)methyl)ethane-1,2-diamine]
- IC50 (PRMT1): < 50 nM
- IC50 (Toledo cells): < 1000 nM
- EC30 (MMA in RKO cells): 250 to 2500 nM

SMILES: CNCCN(C)Cc1ncccc1C1CCN(c2cccc(Cl)c2)CC1 [P089]
- IC50 (PRMT1): < 50 nM
- IC50 (Toledo cells): < 1000 nM
- EC30 (MMA in RKO cells): < 250 nM

SMILES: CNCCN(C)Cc1ncccc1C1CCN(c2cccc(C)c2)CC1 [P094]
- IC50 (PRMT1): < 50 nM
- IC50 (Toledo cells): < 1000 nM
- EC30 (MMA in RKO cells): < 250 nM

SMILES: CNCCN(C)Cc1ncccc1C1CCN(c2ccccc2C)CC1 [P095]
- IC50 (PRMT1): < 50 nM
- IC50 (Toledo cells): < 1000 nM
- EC30 (MMA in RKO cells): < 250 nM

SMILES: CNCCN(C)Cc1ncccc1N1CCc2cc(F)cc(F)c2CC1 [P106]
- IC50 (PRMT1): < 50 nM
- IC50 (Toledo cells): < 1000 nM
- EC30 (MMA in RKO cells): 250 to 2500 nM

SMILES: CNCCN(C)Cc1ncccc1N1CCc2cc(F)c(F)cc2CC1 [P107]
- IC50 (PRMT1): < 50 nM
- IC50 (Toledo cells): < 1000 nM
- EC30 (MMA in RKO cells): 250 to 2500 nM

SMILES: CNCCN(C)Cc1ncccc1N1CCc2ccccc2C(C)C1 (stereo not drawn) [P112]
- IC50 (PRMT1): < 50 nM
- IC50 (Toledo cells): < 1000 nM
- EC30 (MMA in RKO cells): 250 to 2500 nM

SMILES: CCOCC1(COCC)CCC(c2ccccc2CN(C)CCNC)CC1 [P114]
- IC50 (PRMT1): < 50 nM
- IC50 (Toledo cells): < 1000 nM
- EC30 (MMA in RKO cells): < 250 nM

The next lines start with results.

- IC50 (PRMT1): 50 to 500 nM
SMILES: CNCCN(C)Cc1ncccc1N1CCC(Oc2cc(C(F)(F)F)cc(C(F)(F)F)c2)CC1 [P122]
- IC50 (Toledo cells): < 1000 nM
- EC30 (MMA in RKO cells): > 2500 nM

- IC50 (PRMT1): < 50 nM
SMILES: CNCCN(C)Cc1ncccc1N1CCC(COc2ccc(C(F)(F)F)cc2)CC1 [P130]
- IC50 (Toledo cells): < 1000 nM
- EC30 (MMA in RKO cells): 250 to 2500 nM

- IC50 (PRMT1): < 50 nM
SMILES: CNCCN(C)Cc1ncccc1N1CCC(COc2cccc(C(F)(F)F)c2)CC1 [P131]
- IC50 (Toledo cells): < 1000 nM
- EC30 (MMA in RKO cells): 250 to 2500 nM

- IC50 (PRMT1): < 50 nM
SMILES: CCOCC1(COCC)CCN(c2ccccc2CN(C)CCNC)CC1 [P136]
- IC50 (Toledo cells): < 1000 nM
- EC30 (MMA in RKO cells): 250 to 2500 nM

- IC50 (PRMT1): < 50 nM
SMILES: CNCCN(C)Cc1ncccc1N1CCC(Oc2cc(F)cc(C(F)(F)F)c2)CC1 [P137]
- IC50 (Toledo cells): < 1000 nM
- EC30 (MMA in RKO cells): 250 to 2500 nM

- IC50 (PRMT1): < 50 nM
SMILES: CNCCN(C)Cc1ncccc1N1CCC(Oc2cccc(C(F)(F)F)c2)CC1 [P141]
- IC50 (Toledo cells): < 1000 nM
- EC30 (MMA in RKO cells): 250 to 2500 nM

- IC50 (PRMT1): < 50 nM
SMILES: CNCCN(C)Cc1ncccc1N1CCC(Oc2ccc(C(F)(F)F)cc2)CC1 [P142]
- IC50 (Toledo cells): < 1000 nM
- EC30 (MMA in RKO cells): 250 to 2500 nM

- IC50 (PRMT1): < 50 nM
SMILES: CNCCN(C)Cc1ncccc1C1CCN(c2cccc(OC(F)(F)F)c2)CC1 [P143]
- IC50 (Toledo cells): < 1000 nM
- EC30 (MMA in RKO cells): 250 to 2500 nM

- IC50 (PRMT1): < 50 nM
SMILES: CNCCN(C)Cc1ncccc1N1CCC(Oc2cccc(C(F)F)c2)CC1 [P147]
- IC50 (Toledo cells): < 1000 nM
- EC30 (MMA in RKO cells): 250 to 2500 nM

- IC50 (PRMT1): < 50 nM
SMILES: CNCCN(C)Cc1ncccc1N1CCC(Oc2cc(C)cc(C)c2)CC1 [P148]
- IC50 (Toledo cells): < 1000 nM
- EC30 (MMA in RKO cells): 250 to 2500 nM

- IC50 (PRMT1): < 50 nM
SMILES: CNCCN(C)Cc1ncccc1N1CCC(C)(COc2ccccc2)CC1 [P149]
- IC50 (Toledo cells): < 1000 nM
- EC30 (MMA in RKO cells): 250 to 2500 nM

- IC50 (PRMT1): < 50 nM
SMILES: CNCCN(C)Cc1ccc(-c2cn[nH]c2)cc1C1CCN(c2cccc(C)c2)CC1 [P153]
- IC50 (Toledo cells): < 1000 nM
- EC30 (MMA in RKO cells): < 250 nM

- IC50 (PRMT1): < 50 nM
SMILES: CNCCN(C)Cc1ncccc1[C@H]1CC[C@]2(CC1)COC(C)(C)C2 [P157]
- IC50 (Toledo cells): < 1000 nM
- EC30 (MMA in RKO cells): 250 to 2500 nM

- IC50 (PRMT1): < 50 nM
SMILES: CNCCN(C)Cc1ncccc1[C@H]1CC[C@@]2(CC1)COC(C)(C)C2 [P158]
- IC50 (Toledo cells): < 1000 nM
- EC30 (MMA in RKO cells): < 250 nM

- IC50 (PRMT1): < 50 nM
SMILES: CNCCN(C)Cc1ncccc1N1CCC(COc2ccccc2)CC1 [P165]
- IC50 (Toledo cells): < 1000 nM
- EC30 (MMA in RKO cells): 250 to 2500 nM
